Key:
Type in all cases: cell-based, Chinese Hamster
[1] = system: adalimumab-producing CHO cell line; experiment: Example 1 oligosaccharide analysis, batch shake flasks, CDM GIA-1
Protocol: The studies were performed in either a batch process in shake flasks or a fed-batch process in 3 L bioreactors.
Growth and production media for the adalimumab-producing CHO cell line were prepared using a proprietary Life Technologies Gibco chemically defined media, GIA-1. […] All media were filtered through Corning 0.5 L or 1 L filter systems 0.22 μm Poly(Ether Sulfone) (PES) and stored at 4° C. until use.
The cell line utilized for both studies was generated from the adalimumab-producing CHO cell utilized in Example 3 by adapting it to chemically defined GIA-1 media for 7 (2 to 3 day each) passages in a combination of 250 mL and 500 mL Corning vented non-baffled shake flasks before freezing.
Upon thaw, for the batch shake flask study, cells were expanded for 3 to 5 (2 to 3 day each) passages in a combination of 250 mL and 500 mL Corning vented non-baffled shake flasks. Production cultures were initiated in duplicate 500 mL Corning vented non-baffled shake flasks (200 mL working volume) at an initial viable cell density (VCD) of approximately 0.5×10^6 cells/mL. Cultures were maintained on orbital shakers at 110 revolutions per minute (RPM) in a dry incubator at 35° C. and 5% CO2. The shake flask study was run in an extended batch mode by feeding a glucose solution (1.25% (v/v) of 40% solution) when the media glucose concentration fell below 3 g/L.
(§1) For all studies with CHO cell lines described throughout this invention, samples were collected daily and measured for cell density and viability using a Cedex cell counter. Retention samples for titer analysis via Poros A method were collected by centrifugation at 12,000 RPM for 5 min when the culture viability began declining. The cultures were harvested by collecting 125 mL aliquots and centrifuging at 3,000 RPM for 30 min when culture viability was near or below 50%. All supernatants were stored at −80° C. until analysis.
(§2) For all studies, the harvest samples were Protein A purified and prepared for the oligosaccharide assay using the following procedures. As a first step in the process of establishing the identity and quantifying the oligosaccharides, they are released from the protein by enzymatic digestion with N-glycanase. Once the glycans are released, the free reducing end of each glycan is labeled by reductive amination with a fluorescent tag, 2-aminobenzamide (2-AB). The resulting labeled glycans are separated by normal-phase HPLC (NP-HPLC) in acetonitrile: 50 mM ammonium formate, pH 4.4, and detected by a fluorescence detector. Quantitation is based on the relative area percent of detected sugars. Throughout this invention, the relative area percentages of the agalactosyl fucosylated biantennary oligosaccharides, denoted as NGA2F+NGA2F-GlcNAc sum, and the galactose-containing fucosylated biantennary oligosaccharides NA1F+NA2F sum are reported and discussed.
Galactose was supplemented at the following levels in production media: 0, 10, 20, 40, and 100 mM. […] Culture growth, productivity, and product quality data for control cultures is the average of the 3 experiments.

[2] = system: adalimumab-producing CHO cell line #3; experiment: Example 5 oligosaccharide analysis, CDM GIA-1, fed-batch 3 L bioreactors
Protocol: as §1, §2
Growth and production media for the adalimumab-producing CHO cell line #3 were prepared using the proprietary Life Technologies Gibco chemically defined media, GIA-1.
Upon thaw, cells were expanded in Corning vented non-baffled shake flasks maintained on orbital shakers at 140 RPM, and in 10 L cell bags (2 L working volume) maintained at 25 RPM, 7° angle, and 0.25 SLPM airflow in a dry incubator at 36° C. and 5% CO2. Production cultures were initiated in 3 L bioreactors (1.4 L initial working volume) at 36° C., 30% dissolved oxygen, 200 RPM, and pH 6.9±0.2. A fixed split ratio of cells to media of 1:6.7 was utilized to initiate the production stage cultures. A temperature shift was performed when the culture VCD reached a value higher than 5×10^6 cells/mL. The chemically-defined feed from Life Technologies Gibco JCL-5 was added as follows: 4% (v/v)—day 2, 6%—day 4, 8%—day 6, 10%—day 8, and 10%—day 10. […] Bioreactors were harvested at a viability of approximately 50% or on production day 17, whichever condition occurred first.
Galactose was supplemented at 0 and 30 mM concentrations in both production and feed media.

[3] = system: CHO cell line producing mAb #1; experiment: Example 7 culture growth & productivity
Protocol: as §1
Growth and production media for the CHO cell line producing mAb #1 were prepared using a proprietary Life Technologies Gibco chemically defined media, GIA-1. […] All media were filtered through Corning 0.5 L or 1 L filter systems (0.22 μm PES) and stored at 4° C. until use.
Upon thaw, cells were expanded for 6 (3 day each) passages in a combination of 250 mL, 500 mL, and 1000 mL Corning vented non-baffled shake flasks. Production cultures were initiated in duplicate 500 mL Corning vented non-baffled shake flasks (200 mL working volume) at an initial VCD of approximately 0.5×10^6 cells/mL. Cultures were maintained on orbital shakers at 125 RPM in a dry incubator at 35° C. and 5% CO2. A glucose solution (1.25% (v/v) of 40% solution) was fed when the media glucose concentration fell below 3 g/L. […]

[4] = system: CHO cell line producing mAb #2; experiment: Example 8 oligosaccharide analysis, CDM GIA-1, fed-batch 3 L bioreactors
Protocol: as §1, §2
Growth and production media for the mAb #2 producing CHO cell line were prepared using the proprietary Life Technologies Gibco chemically defined media, GIA-1.
Upon thaw, cells were expanded in Corning vented non-baffled shake flasks maintained on orbital shakers at 140 RPM, and in 10 L cell bags (2 L working volume) maintained at 25 RPM, 7° angle, 0.25 SLPM airflow in a dry incubator at 36° C. and 5% CO2. Production cultures were initiated in 3 L bioreactors (1.5 L initial working volume) at 36° C., 25% dissolved oxygen, 200 RPM, and pH 7.0. The chemically-defined feed from Life Technologies Gibco JCL-5 was added as follows: 3% (v/v)—day 3, 5%—day 5, 7%—day 7, 10%—day 9, and 10%—day 11. […] Bioreactors were harvested at viability of approximately 70% or below or on production day 15, whichever condition occurred first.
Galactose was supplemented at 0, 15, 30, and 60 mM concentrations in both production and feed media.

[5] = 100 μM manganese chloride alone
[6] = 0.2 μM manganese chloride alone
[7] = manganese chloride alone, range 0 to 75 μM

O=C[C@H](O)[C@@H](O)[C@@H](O)[C@H](O)CO [galactose, D(+)Galactose]
decrease in the NGA2F+NGA2F-GlcNac sum ([1]; 40 mM galactose alone): 6%
maximum change in the NA1F+NA2F oligosaccharides ([1]; 100 mM galactose alone): 7%
maximum change in the NGA2F+NGA2F-GlcNac ([1]; 100 mM galactose alone): 7%
decrease in the NGA2F+NGA2F-GlcNac sum ([2]; 30 mM galactose alone): 4%
increase in the NA1F+NA2F sum ([2]; 30 mM galactose alone): 3%
culture growth ([3]; galactose alone): grew to a lower maximum VCD compared to the control
decrease in the NGA2F+NGA2F-GlcNac sum ([4]; 15 mM galactose alone): 7%
decrease in the NGA2F+NGA2F-GlcNac sum ([4]; 30 mM galactose alone): 12%
maximum decrease in the NGA2F+NGA2F-GlcNac sum ([4]; galactose alone up to 60 mM): 12%
maximum increase in the NA1F+NA2F sum ([4]; galactose alone up to 60 mM): 11%

Manganese (II) Chloride [manganese chloride]
decrease in the NGA2F+NGA2F-GlcNac sum ([1]; 40 μM manganese chloride alone): 6%
maximum change in the NA1F+NA2F oligosaccharides [1, 5]: 8%
maximum change in the NGA2F+NGA2F-GlcNac [1, 5]: 9%
decrease in the NGA2F+NGA2F-GlcNac sum [2, 6]: 15%
increase in the NA1F+NA2F sum [2, 6]: 16%
increase in the NA1F+NA2F oligosaccharides ([2]; 1 μM manganese chloride alone): 28%
maximum decrease in the NGA2F+NGA2F-GlcNac ([2]; 1 μM manganese chloride alone): 26%
culture growth ([3]; manganese chloride alone 0 to 20 μM): grew comparable to the control cultures
decrease in the NGA2F+NGA2F-GlcNac sum ([4]; 25 μM manganese chloride alone): 10%
decrease in the NGA2F+NGA2F-GlcNac sum ([4]; 50 μM manganese chloride alone): 18%
maximum decrease in the NGA2F+NGA2F-GlcNac sum [4, 7]: 18%
maximum increase in the NA1F+NA2F sum [4, 7]: 16%
